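GI50 = concentration required for 50% inhibition of growth. At the TGI there is no net growth.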
Experiments:
Assay in all cases: growth of human tumour cells (NCI), 384-well format
[1] = tested on: 786-0 renal
[2] = tested on: A498 renal
[3] = tested on: A549 NSCLC
[4] = tested on: ACHN renal
[5] = tested on: BT-549 breast
[6] = tested on: CAKI-1 renal
[7] = tested on: CCRF-CEM leukemia
[8] = tested on: DU-145 prostate
[9] = tested on: EKVX NSCLC
[10] = tested on: HCT-116 colon
[11] = tested on: HCT-15 colon
[12] = tested on: HL-60(TB) leukemia
[13] = tested on: HOP-62 NSCLC
[14] = tested on: HOP-92 NSCLC
[15] = tested on: HS 578T breast
[16] = tested on: HT29 colon
[17] = tested on: IGROV1 ovarian
[18] = tested on: K-562 leukemia
[19] = tested on: KM12 colon
[20] = tested on: LOX IMVI melanoma
[21] = tested on: M14 melanoma
[22] = tested on: MALME-3M melanoma
[23] = tested on: MCF7 breast
[24] = tested on: MDA-MB-231 breast
[25] = tested on: MDA-MB-435 melanoma
[26] = tested on: MDA-MB-468 breast
[27] = tested on: MOLT-4 leukemia
[28] = tested on: NCI-H226 lung
[29] = tested on: NCI-H23 lung
[30] = tested on: NCI-H322M lung
[31] = tested on: NCI-H522 lung
[32] = tested on: NCI/ADR-RES ovarian
[33] = tested on: OVCAR-3 ovarian
[34] = tested on: OVCAR-4 ovarian
[35] = tested on: OVCAR-5 ovarian
[36] = tested on: OVCAR-8 ovarian
[37] = tested on: PC-3 prostate
[38] = tested on: RPMI-8226 leukemia
[39] = tested on: RXF 393 renal
[40] = tested on: SF-268 CNS
[41] = tested on: SF-295 CNS
[42] = tested on: SF-539 CNS
[43] = tested on: SK-MEL-2 melanoma
[44] = tested on: SK-MEL-28 melanoma
[45] = tested on: SK-OV-3 ovarian
[46] = tested on: SN12C renal
[47] = tested on: SNB-19 CNS
[48] = tested on: SNB-75 CNS
[49] = tested on: SW-620 colon
[50] = tested on: T-47D breast
[51] = tested on: TK-10 renal
[52] = tested on: U251 glioblastoma
[53] = tested on: UACC-257 melanoma
[54] = tested on: UACC-62 melanoma
[55] = tested on: UO-31 renal

Q: Which results are given for `Cn1c(CCCC(=O)O)nc2cc(N(CCCl)CCCl)ccc21`?
A: GI50 [1]: 90.6 µM; TGI [1]: > 100 µM; GI50 [2]: > 100 µM; TGI [2]: > 100 µM; GI50 [3]: > 100 µM; TGI [3]: > 100 µM; GI50 [4]: 68.3 µM; TGI [4]: > 100 µM; GI50 [5]: 57 µM; TGI [5]: > 100 µM; GI50 [6]: 55.4 µM; TGI [6]: > 100 µM; GI50 [7]: 17.9 µM; TGI [7]: 32.4 µM; GI50 [8]: > 100 µM; TGI [8]: > 100 µM; GI50 [9]: > 100 µM; TGI [9]: > 100 µM; GI50 [10]: 61.3 µM; TGI [10]: > 100 µM; GI50 [11]: > 100 µM; TGI [11]: > 100 µM; GI50 [12]: 17.3 µM; TGI [12]: 33.2 µM; GI50 [13]: 42 µM; TGI [13]: > 100 µM; GI50 [14]: > 100 µM; TGI [14]: > 100 µM; GI50 [15]: > 100 µM; TGI [15]: > 100 µM; GI50 [16]: > 100 µM; TGI [16]: > 100 µM; GI50 [17]: > 100 µM; TGI [17]: > 100 µM; GI50 [18]: > 100 µM; TGI [18]: > 100 µM; GI50 [19]: > 100 µM; TGI [19]: > 100 µM; GI50 [20]: 88.3 µM; TGI [20]: > 100 µM; GI50 [21]: 55.5 µM; TGI [21]: > 100 µM; GI50 [22]: > 100 µM; TGI [22]: > 100 µM; GI50 [23]: 71.3 µM; TGI [23]: > 100 µM; GI50 [24]: > 100 µM; TGI [24]: > 100 µM; GI50 [25]: > 100 µM; TGI [25]: > 100 µM; GI50 [26]: 11.9 µM; TGI [26]: 32.8 µM; GI50 [27]: 3.2 µM; TGI [27]: 10.3 µM; GI50 [28]: 93.1 µM; TGI [28]: > 100 µM; GI50 [29]: 60.3 µM; TGI [29]: > 100 µM; GI50 [30]: > 100 µM; TGI [30]: > 100 µM; GI50 [31]: 39.3 µM; TGI [31]: > 100 µM; GI50 [32]: > 100 µM; TGI [32]: > 100 µM; GI50 [33]: > 100 µM; TGI [33]: > 100 µM; GI50 [34]: > 100 µM; TGI [34]: > 100 µM; GI50 [35]: > 100 µM; TGI [35]: > 100 µM; GI50 [36]: 69.8 µM; TGI [36]: > 100 µM; GI50 [37]: > 100 µM; TGI [37]: > 100 µM; GI50 [38]: 39.8 µM; TGI [38]: > 100 µM; GI50 [39]: 41.7 µM; TGI [39]: > 100 µM; GI50 [40]: 35.6 µM; TGI [40]: > 100 µM; GI50 [41]: > 100 µM; TGI [41]: > 100 µM; GI50 [42]: 50.4 µM; TGI [42]: > 100 µM; GI50 [43]: > 100 µM; TGI [43]: > 100 µM; GI50 [44]: > 100 µM; TGI [44]: > 100 µM; GI50 [45]: > 100 µM; TGI [45]: > 100 µM; GI50 [46]: 34.7 µM; TGI [46]: > 100 µM; GI50 [47]: > 100 µM; TGI [47]: > 100 µM; GI50 [48]: > 100 µM; TGI [48]: > 100 µM; GI50 [49]: 72.7 µM; TGI [49]: > 100 µM; GI50 [50]: > 100 µM; TGI [50]: > 100 µM; GI50 [51]: > 100 µM; TGI [51]: > 100 µM; GI50 [52]: 47.1 µM; TGI [52]: > 100 µM; GI50 [53]: > 100 µM; TGI [53]: > 100 µM; GI50 [54]: 31.8 µM; TGI [54]: > 100 µM; GI50 [55]: > 100 µM; TGI [55]: > 100 µM

— PubChem BioAssay (NCI)
